Patent publication US8658685B2, “Methods for treatment of kallikrein-related disorders” (Activesite Pharmaceuticals, Inc., priority 2008, dated 2014)

Assays:
[1] = test system: AngII-induced retinal vascular permeability; assay: AngII-induced retinal vascular permeability in rats; format: in vivo, rat; conditions: AngII and ASP-465 via 2 Alzet pumps for 3 days; vitreous fluorophotometry
Procedure: Rats were implanted with a single subcutaneous osmotic pump containing Ang II or two pumps containing AngII and ASP-465, as indicated. RVP was measured using vitreous fluorophotometry after 3 days.
RVP was measured using Evan's blue dye method after 7 days.
We examined the effect of the kallikrein inhibitor ASP-465 on RVP induced by angiotensin II (AngII).

astrocytes [2] = assay: Plasma kallikrein-induced ERK phosphorylation in astrocytes; format: cell-based; conditions: astrocytes exposed to plasma kallikrein
Text: (§1) We have also studied the effects of plasma kallikrein pathway activation on astrocytes. […] Exposure of astrocytes to plasma kallikrein potently stimulated ERK phosphorylation, and this action of kallikrein on astrocytes is not affected by B2-R antagonism (Hoe140). The effect of kallikrein on astrocytes was blocked by leupeptin, a protease inhibitor and C1-INH (data not shown). […] This is in contrast to the bradykinin effect, which is rapid and transient (data not shown). Plasma kallikrein's effect on ERK phosphorylation in astrocytes is dose dependent, reaching a maximal effect at 100 nM kallikrein (data not shown). […] In addition, plasma kallikrein binding to astrocytes was blocked by AS-440 (FIG. 9B) and C1-INH (data not shown).

astrocytes [3] = assay: Plasma kallikrein binding to astrocytes; format: cell-based
Text: as §1

brain astrocytes = assay: Bradykinin-induced ERK phosphorylation in brain astrocytes; format: cell-based
Text: as §1

bradykinin-induced RVP = assay: Bradykinin-induced RVP in rats (vitreous fluorophotometry); format: in vivo; conditions: pretreatment 2 days, 12 ug/day/200 g rat, subcutaneous Alzet pump
Text: (§2) FIGS. 3A-3B are a set of two bar graphs that show the effects of intravitreal injection of kallikrein (FIG. 3A) and bradykinin (FIG. 3B) on RVP in rats measured using vitreous fluorophotometry. Activators of the kallikrein pathway, including purified activated plasma kallikrein, factor XII (FXII), high molecular weight kininogen (HK), and bradykinin, increase retinal vascular permeability (RVP) to fluorescein. In addition, inhibitors of the kallikrein pathway, such as complement I inhibitors and α2-macroglobulin reduced RVP. Direct injection of these kallikrein pathway activators into the vitreous was observed by SLO fundus imaging of the leakage from first phase fluorescein following bolus intravenous injection (FIG. 2) and by vitreous fluorophotometry, which measure the levels of fluorescein in the vitreous 30 min after intravenous injection (FIG. 5A). […] In addition, intravitreal injection of bradykinin can acutely increase RVP (FIGS. 2A and 2B). Moreover, pretreatment of rats for 2 days with Hoe140 (Bradykinin R2 antagonist, 12 ug/day/200 g rat delivered using a subcutaneous Alzet pump) inhibited bradykinin-induced RVP (FIG. 3B).

blood-induced hematoma = assay: Hematoma after intracerebral infusion of autologous blood in diabetic rats; format: in vivo, Sprague-Dawley rats; conditions: systemic treatment, 48 h after intracerebral infusion of autologous blood
Procedure: We have compared the response to intracerebral infusion of blood in Sprague-Dawley rats with 1 mo of STZ-induced diabetes with age matched non-diabetic control rats. Fifty μL of autologous whole blood was collected from the tail vein and immediately infused 1 mm anterior, 4 mm lateral and 6 mm in depth to the bregma using a 30 gauge needle at 20 μL per minute. The infusion needle was removed 10 min after injection and the burr hole was sealed with bone wax. Forty-eight hours after intracerebral injection, the animals were perfused with saline and surface hematoma area was examined by measurement of hematoma area relative to total hemisphere area.

[4] = test system: retinal vascular permeability (RVP); assay: Retinal vascular permeability to fluorescein, kallikrein pathway inhibitors; conditions: in vivo
Text: as §2, with “Activators” for “FIGS. 3A-3B are a set of two bar graphs that show the effects of intravitreal injection of kallikrein (FIG. 3A) and bradykinin (FIG. 3B) on RVP in rats measured using vitreous fluorophotometry. Activators”

Molecule	effect of kallikrein on ERK phosphorylation (astrocytes [2])	RVP [4]	also measured
Cc1cc(C(=O)NCc2ccc(C(=N)N)cc2)c(C)n1Cc1ccncc1 [ASP-465, 2,5-Dimethyl-1-pyridin-4-ylmethyl-1H-pyrrole-3-carboxylic acid 4-carbamimidoyl-benzylamide]			RVP [1]: normal levels of RVP
CC(=O)N[C@@H](CC(C)C)C(=O)N[C@@H](CC(C)C)C(=O)N[C@H](C=O)CCCNC(=N)N [leupeptin, reference compound]	blocked		
C1-INH: C1-Esterase inhibitor, a serpin; major inhibitor of the classical complement pathway, contact activation system and intrinsic coagulation	blocked		plasma kallikrein binding to astrocytes (astrocytes [3]): blocked
Hoe140 [reference compound]	not affected		bradykinin-induced ERK phosphorylation (brain astrocytes): blocked; bradykinin-induced RVP (bradykinin-induced RVP): inhibited; hematoma area (blood-induced hematoma): did not reduce
α2-macroglobulin: inhibitor of the kallikrein pathway (protein, UniProt P01023 24-1474, looked up) Alpha-2-macroglobulin: SVSGKPQYMVLVPSLLHTETTEKGCVLLSYLNETVTVSASLESVRGNRSLFTDLEAENDVLHCVAFAVPKSSSNEEVMFLTVQVKGPTQEFKKRTTVMVKNEDSLVFVQTDKSIYKPGQTVKFRVVSMDENFHPLNELIPLVYIQDPKGNRIAQWQSFQLEGGLKQFSFPLSSEPFQGSYKVVVQKKSGGRTEHPFTVEEFVLPKFEVQVTVPKIITILEEEMNVSVCGLYTYGKPVPGHVTVSICRKYSDASDCHGEDSQAFCEKFSGQLNSHGCFYQQVKTKVFQLKRKEYEMKLHTEAQIQEEGTVVELTGRQSSEITRTITKLSFVKVDSHFRQGIPFFGQVRLVDGKGVPIPNKVIFIRGNEANYYSNATTDEHGLVQFSINTTNVMGTSLTVRVNYKDRSPCYGYQWVSEEHEEAHHTAYLVFSPSKSFVHLEPMSHELPCGHTQTVQAHYILNGGTLLGLKKLSFYYLIMAKGGIVRTGTHGLLVKQEDMKGHFSISIPVKSDIAPVARLLIYAVLPTGDVIGDSAKYDVENCLANKVDLSFSPSQSLPASHAHLRVTAAPQSVCALRAVDQSVLLMKPDAELSASSVYNLLPEKDLTGFPGPLNDQDNEDCINRHNVYINGITYTPVSSTNEKDMYSFLEDMGLKAFTNSKIRKPKMCPQLQQYEMHGPEGLRVGFYESDVMGRGHARLVHVEEPHTETVRKYFPETWIWDLVVVNSAGVAEVGVTVPDTITEWKAGAFCLSEDAGLGISSTASLRAFQPFFVELTMPYSVIRGEAFTLKATVLNYLPKCIRVSVQLEASPAFLAVPVEKEQAPHCICANGRQTVSWAVTPKSLGNVNFTVSAEALESQELCGTEVPSVPEHGRKDTVIKPLLVEPEGLEKETTFNSLLCPSGGEVSEELSLKLPPNVVEESARASVSVLGDILGSAMQNTQNLLQMPYGCGEQNMVLFAPNIYVLDYLNETQQLTPEIKSKAIGYLNTGYQRQLNYKHYDGSYSTFGERYGRNQGNTWLTAFVLKTFAQARAYIFIDEAHITQALIWLSQRQKDNGCFRSSGSLLNNAIKGGVEDEVTLSAYITIALLEIPLTVTHPVVRNALFCLESAWKTAQEGDHGSHVYTKALLAYAFALAGNQDKRKEVLKSLNEEAVKKDNSVHWERPQKPKAPVGHFYEPQAPSAEVEMTSYVLLAYLTAQPAPTSEDLTSATNIVKWITKQQNAQGGFSSTQDTVVALHALSKYGAATFTRTGKAAQVTIQSSGTFSSKFQVDNNNRLLLQQVSLPELPGEYSMKVTGEGCVYLQTSLKYNILPEKEEFPFALGVQTLPQTCDEPKAHTSFQISLSVSYTGSRSASNMAIVDVKMVSGFIPLKPTVKMLERSNHVSRTEVSSNHVLIYLDKVSNQTLSLFFTVLQDVPVRDLKPAIVKVYDYYETDEFAIAEYNAPCSKDLGNA		reduced RVP	
complement I inhibitors: inhibitors of the kallikrein pathway; probably complement 1 inhibitor (C1-INH) (protein, UniProt P05155 23-500, looked up) Plasma protease C1 inhibitor: NPNATSSSSQDPESLQDRGEGKVATTVISKMLFVEPILEVSSLPTTNSTTNSATKITANTTDEPTTQPTTEPTTQPTIQPTQPTTQLPTDSPTQPTTGSFCPGPVTLCSDLESHSTEAVLGDALVDFSLKLYHAFSAMKKVETNMAFSPFSIASLLTQVLLGAGENTKTNLESILSYPKDFTCVHQALKGFTTKGVTSVSQIFHSPDLAIRDTFVNASRTLYSSSPRVLSNNSDANLELINTWVAKNTNNKISRLLDSLPSDTRLVLLNAIYLSAKWKTTFDPKKTRMEPFHFKNSVIKVPMMNSKKYPVAHFIDQTLKAKVGQLQLSHNLSLVILVPQNLKHRLEDMEQALSPSVFKAIMEKLEMSKFQPTLLTLPRIKVTTSQDMLSIMEKLEFFDFSYDLNLCGLTEDPDLQVSAMQHQTVLELTETGVEAAAASAISVARTLLVFEVQQPFLFVLWDQQHKFPVFMGRVYDPRA		reduced RVP	
